# Reference: patent US20180193336A1, “SPRAY DRY FORMULATIONS” (Pulmokine, Inc., priority 2013, published 2018)
# Key:
# rat MCT model = experiment: Efficacy in rat MCT model, PK10453 dose response; assay type: in vivo
# Experimental: Male Sprague Dawley rats received MCT 60 mg/kg IPMCT, and after 3 weeks, PK10453 (Structure 2) or vehicle control were administered by inhalation. Four groups were studied: vehicle control (4 min exposure) and three treatment groups of PK10453 (Structure 2) with exposure times 2 min (D2), 4 min (D4), or 8 min (D8) three times a day. These regimens were administered for two weeks. The vehicle consisted of aerosolized 1M tosylic acid neutralized with ammonia vapor as described above. The pH of a solution prepared by dissolving captured aerosol particles in water was measured for every dose and was consistently in the range of 5.5-6.0. At the end of the study, the RV systolic pressure was measured, and the heart chambers dissected and weighed.
# PDGFRbeta = PDGFRbeta (Homo sapiens, UniProt P09619); details: FIG. 25
# Experimental: A Z-lyte kinase assay was performed to determine the inhibition of PDGFRalpha and PDGFRbeta mediated phosphorylation by PK10453 (Structure 2). Ten point titration curves were modeled to calculate the IC50 (Invitrogen Select Screen®).
# Sequence of PDGFRbeta (P09619 600-962 limits assumed): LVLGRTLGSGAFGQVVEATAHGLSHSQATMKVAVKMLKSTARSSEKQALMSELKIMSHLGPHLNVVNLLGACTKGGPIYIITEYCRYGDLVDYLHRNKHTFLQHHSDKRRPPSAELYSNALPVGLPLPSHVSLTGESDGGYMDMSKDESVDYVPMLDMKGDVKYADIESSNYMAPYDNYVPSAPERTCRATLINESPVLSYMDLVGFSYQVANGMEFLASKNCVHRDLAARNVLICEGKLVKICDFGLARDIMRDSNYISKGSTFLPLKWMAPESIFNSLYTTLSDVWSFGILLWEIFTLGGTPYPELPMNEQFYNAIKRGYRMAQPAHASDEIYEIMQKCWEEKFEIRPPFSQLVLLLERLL
structure (smiles),measurement,setting,value
"COc1cc(-c2cncc(N[C@@H](C)c3cccc(NC(=O)c4cncc(C)c4)c3)n2)ccc1O [PK10453, (S)—N-(3-(1-((6-(4-hydroxy-β-methoxyphenyl)pyrazin-2yl)amino)ethyl)phenyl)-5-methylnicotinamide]","degree of RV hypertrophy, ratio (RV+IVS)/LV weight",rat MCT model; rat MCT,significant reduction
same,decrease of RV systolic pressure,"rat MCT model; rat MCT model, discussion",50%
same,reduction in RVSP compared to the vehicle treated group,"rat MCT model; rat MCT, D4",44%
same,reduction in RVSP compared to the vehicle treated group,"rat MCT model; rat MCT, D8",54%
same,potency against PDGFR beta kinase domain relative to imatinib,PDGFRbeta,more potent than imatinib
